Laboratory results as given in publication PMC11145868, “Protein target similarity is positive predictor of in vitro antipathogenic activity: a drug repurposing strategy for Plasmodium falciparum” (Journal of Cheminformatics, 2024).
Structures can show the parent of a compound that is named as a salt. Where two headings read alike, the source gives them in different places.

How the values were obtained:
[1] = in vitro; settings: human
[2] = system: P. falciparum Dd2-HLH; test: microbe, parasite or virus in culture; format: cell-based, Plasmodium falciparum; settings: read-out: Blood stage 72h EC50
[3] = system: P. falciparum Dd2-HLH; test: microbe, parasite or virus in culture; format: cell-based, Plasmodium falciparum
[4] = system: P. berghei-luciferase sporozoites; test: microbe, parasite or virus in culture; format: cell-based, Plasmodium berghei
[5] = system: HEK293T cells; test: Mammalian cell cytotoxicity assay, HEK293T (CellTiter-Glo, 72 h); settings: read-out: HEK CC50
[6] = Mammalian cell cytotoxicity assay, HepG2 (CellTiter-Glo, 72 h); settings: human, HepG2 cells
[7] = Mammalian cell cytotoxicity assay, HEK293T (CellTiter-Glo, 72 h); settings: human, HEK293T cells
[8] = Plasmodium falciparum, DD2, 72 h
[9] = Plasmodium falciparum, DD2, 48 h, read-out: Blood stage 48h EC50
[10] = Plasmodium berghei, HepG2, liver-stage parasites, 48 hours in culture, read-out: Liver stage 48h EC50
[11] = P. falciparum blood-stage parasites, 72 hours in culture
[12] = P. falciparum blood-stage parasites, 48 hours in culture, read-out: Blood stage 48h EC50
[13] = liver-stage parasites, 48 hours in culture, read-out: Liver stage 48h EC50
[14] = Plasmodium falciparum, DD2, P. falciparum blood-stage parasites, 72 hours in culture
[15] = Plasmodium falciparum, DD2, P. falciparum blood-stage parasites, 48 hours in culture, read-out: Blood stage 48h EC50
[16] = Plasmodium falciparum, DD2, Hec50, 48 h, read-out: Blood stage 48 h EC50
[17] = Plasmodium berghei, liver-stage parasites, 48 h in culture, read-out: Liver 48 h EC50

Compound | EC50 [2, 8] [nM] | EC50 [3, 9] [nM] | EC50 [4, 10] [nM] | EC50 [2, 11] [nM] | EC50 [3, 12] [nM] | EC50 [4, 13] [nM] | CC50 at 72 h [6] [nM] | CC50 at 72 h [7] [nM] | also measured
CO[C@H]1/C=C\C=C(/C)C(=O)NC2=CC(=O)C(NCCN(C)C)=C(C[C@@H](C)C[C@H](OC)[C@H](O)[C@@H](C)/C=C(\C)[C@@H]1OC(N)=O)C2=O [Alvespimycin hydrochloride] | 273 | 159 | 129 | – | – | – | – | – | CC50 [1]: 164 nM
Cc1cc(-c2cc(OC(=O)c3ccccc3)ccc2Cl)cc2nnc(Nc3ccc(OCCN4CCCC4)cc3)nc12 [TG-100801] | – | – | – | 205 | 68 | 1410 | – | – | CC50 ([5]; HEK293T cytotoxicity): > 9950 nM
CN(C)CCCN1c2ccccc2CCc2ccccc21 [Imipramine hydrochloride] | 963 | 180 | > 10000 | – | – | – | > 9950 | > 9950 | –
COc1cc2c(Nc3ccc(NC(=O)c4ccccc4)cc3)ncnc2cc1OCCCN1CCOCC1 [ZM447439] | – | – | – | 643 | 452 | 4330 | – | – | CC50 ([5]; HEK293T cytotoxicity): > 9950 nM
CC[C@]1(O)C[C@@H]2CN(CCc3c([nH]c4ccccc34)[C@@](C(=O)OC)(c3cc4c(cc3OC)N(C)[C@H]3[C@@](O)(C(N)=O)[C@H](O)[C@]5(CC)C=CCN6CC[C@]43[C@@H]65)C2)C1 [Vindesine] | 20 | 14 | 837 | – | – | – | > 9990 | > 9950 | –
COCCNCc1ccc(-c2cc3nccc(Oc4ccc(NC(=O)C5(C(=O)Nc6ccc(F)cc6)CC5)cc4F)c3s2)nc1 [MG-516] | 673 | 144 | 2180 | – | – | – | 1460 | 2250 | –
CN(C)Cc1ccc(S(=O)(=O)n2ccc(/C=C/C(=O)NO)c2)cc1 [resminostat, reference compound] | 697 | – | 7060 | – | – | – | 1200 | 3550 | EC50 ([3]; Plasmodium falciparum, DD2, read-out: EC50 (antiplasmodial, quoted in discussion from Supplementary Table 1)): 431 nM
C[C@]12O[C@H](C[C@]1(O)CO)n1c3ccccc3c3c4c(c5c6ccccc6n2c5c31)CNC4=O [Lestaurtinib] | – | – | 1020 | – | – | – | 29 | 551 | EC50 [2, 14]: 259 nM; EC50 [3, 15]: 88 nM
c1ccc(Cn2c(N3CCNCC3)nc3ccccc32)cc1 [Lerisetron] | 267 | 144 | 1130 | – | – | – | 236 | > 9950 | –
CN1CCC(CNc2ccc3ncc(-c4cccc(OC(F)(F)F)c4)n3n2)CC1 [SGI-1776] | 623 | 482 | 1790 | – | – | – | 1040 | 4580 | –
Cc1ccc(CCCO)c(NCc2ccc3nc(NCCCN4CCOCC4)n(Cc4nc(C)ccc4O)c3c2)c1 [TMC-353121] | – | – | – | 650 | 319 | > 10000 | – | – | CC50 ([5]; HEK293T cells): > 9950 nM
CCCCCC(=O)O[C@]1(C(C)=O)CC[C@H]2[C@@H]3CCC4=CC(=O)CC[C@]4(C)[C@H]3CC[C@@]21C [Hydroxyprogesterone caproate] | 742 | 550 | 1710 | – | – | – | 863 | > 9950 | –
XL-888 | – | – | – | 348 | 201 | 99 | – | – | CC50 ([5]; HEK293T cytotoxicity): 47 nM
CC1=C(c2ccc(O)cc2)[C@H](c2ccc(OCCN3CCCCC3)cc2)Oc2cc(O)ccc21 [Acolbifene] | 728 | 218 | 2830 | – | – | – | 6210 | 2990 | –
COc1cc2nc(-c3ccc(N4CCN(C)CC4)cc3)nc(NCCN3CCOCC3)c2cc1OC [CPG-52364] | – | – | – | 381 | 100 | 1100 | – | – | CC50 ([5]; HEK293T cells): 1640 nM
Cc1nc(N2CCN(Cc3ccc(F)cc3)C2=O)sc1C(=O)NCc1cccnc1 [XEN-723] | – | – | – | 334 | 158 | > 10000 | – | – | CC50 ([5]; HEK293T cells): 57 nM
Cc1ncc(NC(=O)c2ccc(CN3CCN(C)CC3)c(C(F)(F)F)c2)cc1Nc1nccc(-c2cccnc2)n1 [Flumatinib mesylate] | – | – | – | 213 | 85 | > 10000 | – | – | CC50 ([5]; HEK293T cells): > 9950 nM
COc1cc(N2CCC(N3CCN(C)CC3)CC2)ccc1Nc1ncc(Cl)c(Nc2ccccc2P(C)(C)=O)n1 [Brigatinib] | 346 | 99 | 3330 | – | – | – | 136 | 1390 | –

Compound | EC50 [2, 8] [nM] | EC50 [3, 9] [nM] | EC50 [4, 10] [nM] | EC50 [2, 11] [nM] | EC50 [3, 12] [nM] | EC50 [4, 13] [nM] | CC50 at 72 h [6] [nM] | CC50 at 72 h [7] [nM] | also measured
CN(c1ccc(Cl)cc1)c1cc[n+](Cc2ccc(-c3ccc(C[n+]4ccc(N(C)c5ccc(Cl)cc5)c5ccccc54)cc3)cc2)c2ccccc12 [TCD-717] | 714 | 63 | 102 | – | – | – | 4770 | 1930 | –
COc1ccc(C[C@H](N)C(=O)N[C@H]2[C@@H](O)[C@H](n3cnc4c(N(C)C)ncnc43)O[C@@H]2CO)cc1 [Puromycin] | 125 | 61 | 840 | – | – | – | 498 | 1240 | –
N[C@H](C(=O)O)[C@@H]1CC(Cl)=NO1 [Acivicin] | 545 | 209 | 1100 | – | – | – | 1700 | 7730 | –
CN(C)c1ccc2c(c1)Sc1cc(N(C)C)ccc1N2 [Leuco methylthioninium] | – | – | – | – | – | – | – | – | EC50 [2]: 209 nM; EC50 ([3]; read-out: Blood stage 48h EC50): 96 nM; EC50 ([4]; read-out: Liver stage 48h EC50): 3920 nM; CC50 ([5]; HEK293T cells): 3490 nM
CC(=O)O[C@H]1C(=O)[C@@]2(C)[C@H]([C@H](OC(=O)c3ccccc3)[C@]3(O)C[C@H](OC(=O)[C@H](O)[C@@H](NC(=O)c4ccccc4)c4ccccc4)C(C)=C1C3(C)C)[C@]1(OC(C)=O)CO[C@@H]1C[C@@H]2O [Paclitaxel] | 186 | 164 | 7530 | – | – | – | 7040 | > 9950 | –
CCc1ccc(OCc2ccccc2C(=O)Nc2ccc3nc(C)cc(N)c3c2)cc1 [JTC-801] | – | – | – | 635 | 123 | 429 | – | – | CC50 ([5]; HEK293T cytotoxicity): 1810 nM
SN-38 | – | – | – | 358 | 507 | 1010 | – | – | CC50 ([5]; HEK293T cells): 79 nM
CO[C@H]1C(=O)[C@]2(C)[C@@H](OC)C[C@H]3OC[C@@]3(OC(C)=O)[C@H]2[C@H](OC(=O)c2ccccc2)[C@]2(O)C[C@H](OC(=O)[C@H](O)[C@@H](NC(=O)OC(C)(C)C)c3ccccc3)C(C)=C1C2(C)C [Cabazitaxel, reference compound] | 8 | – | – | – | – | – | 784 | > 9950 | EC50 [3, 16]: 6 nM; EC50 [4, 17]: 43 nM
O=C(NO)c1cnc(N2C[C@@H]3[C@H](C2)[C@H]3NCc2ccc3cc(F)ccc3n2)nc1 [CHR-3996] | 15 | 20 | 151 | – | – | – | 195 | 920 | –
COC(=O)[C@]12CCC(C)(C)C[C@H]1[C@H]1C(=O)C=C3[C@@]4(C)C=C(C#N)C(=O)C(C)(C)[C@@H]4CC[C@@]3(C)[C@]1(C)CC2 [Bardoxolone methyl] | 750 | 340 | 155 | – | – | – | 557 | 208 | –
CN[C@@H]1C[C@H]2O[C@@](C)([C@@H]1OC)n1c3ccccc3c3c4c(c5c6ccccc6n2c5c31)C(=O)N[C@H]4O [UCN-01] | – | – | – | 488 | 79 | 2150 | – | – | CC50 ([5]; HEK293T cytotoxicity): 74 nM
COc1ccc(-c2ccc3ncc4c(c3c2)n(-c2ccc(N3CCNCC3)c(C(F)(F)F)c2)c(=O)n4C)cn1 [NVP-BGT226, reference compound] | 6 | 1 | 1 | – | – | – | 3 | 35 | EC50 [3, 16]: 0.6 nM; EC50 [4, 17]: 0.5 nM
CC(=O)O[C@@]12CO[C@@H]1C[C@H](O)[C@@]1(C)C(=O)[C@H](O)C3=C(C)[C@@H](OC(=O)[C@H](O)[C@@H](NC(=O)OC(C)(C)C)c4ccccc4)C[C@@](O)([C@@H](OC(=O)c4ccccc4)[C@H]21)C3(C)C [Docetaxel] | 11 | 11 | 401 | – | – | – | 24 | > 9950 | –
COC1=C(C)C(=O)C2=C(C1=O)[C@@H](COC(N)=O)[C@@]1(OC)[C@H]3N[C@H]3CN21 [mitomycin A, reference compound] | – | – | 1360 | – | – | – | 32 | 362 | EC50 [2, 14]: 18 nM; EC50 [3, 15]: 38 nM; EC50 ([3]; Plasmodium falciparum, DD2, stage and incubation time not given, read-out: EC50 (antiplasmodial, quoted in discussion from Supplementary Table 1)): 37.7 nM
Cc1cc(N)c2cc(NC(=O)Nc3ccc4nc(C)cc(N)c4c3)ccc2n1 [Aminoquinuride] | 449 | 79 | 3490 | – | – | – | > 9990 | > 9950 | –
O=C(Nc1ccccc1)N[C@@H]1C(=O)N(CC23CC4CC(CC(C4)C2)C3)c2ccccc2N(c2ccccc2)C1=O [GV 150013] | – | – | – | 253 | – | > 10000 | – | – | CC50 ([5]; HEK293T cells): > 9950 nM
Cc1[nH]c2ccccc2c1CCNCc1ccc(/C=C/C(=O)NO)cc1 [Panobinostat Lactate] | – | – | – | 51 | 20 | 131 | – | – | CC50 ([5]; HEK293T cells): 78 nM
